Results from US9364479B2, “Use of a receptor-type kinase modulator for treating polycystic kidney disease” (SYMPHONY EVOLUTION, INC., priority 2010, dated 2016).

How the values were obtained:
[1] = tested on: Potassium Channel, Ca2+ Act., VI; test: NovaScreen assay; format: binding
KDR = KDR (Homo sapiens, UniProt P35968); test: Cellular autophosphorylation assay; format: cell-based
[2] = tested on: Potassium Channel, ATP-Sensitive; test: NovaScreen assay; format: binding
PKC-ε = molecular target: T1, PKC-ε (Homo sapiens, UniProt Q02156); test: Radiometric kinase assay; format: biochemical
T1 construct: purchased PanVera
Method: (§1) Further screening was performed using the biochemical assay methods of Example 2. Additional description of the components and concentrations are summarized in Table 8, Table 9, and Table 10, below.

Chk1 = molecular target: T2, Chk1 (Homo sapiens, UniProt O14757); test: Radiometric kinase assay; format: biochemical
T2 construct: GST (N); purchased Upstate Biotechnology
T2 sequence (O14757 whole entry): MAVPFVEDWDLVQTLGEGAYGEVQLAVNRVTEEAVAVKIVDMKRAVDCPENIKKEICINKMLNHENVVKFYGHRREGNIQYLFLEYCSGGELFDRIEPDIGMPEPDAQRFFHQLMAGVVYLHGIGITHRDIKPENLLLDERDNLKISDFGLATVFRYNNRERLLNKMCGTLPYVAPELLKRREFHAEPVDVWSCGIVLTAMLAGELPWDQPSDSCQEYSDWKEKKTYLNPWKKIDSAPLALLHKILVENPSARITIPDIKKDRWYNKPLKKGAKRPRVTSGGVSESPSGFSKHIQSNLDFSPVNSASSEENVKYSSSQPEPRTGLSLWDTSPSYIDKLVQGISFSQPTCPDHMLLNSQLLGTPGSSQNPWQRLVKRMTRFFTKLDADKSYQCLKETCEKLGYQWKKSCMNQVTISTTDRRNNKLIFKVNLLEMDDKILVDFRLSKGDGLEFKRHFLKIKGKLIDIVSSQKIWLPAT
Method: as §1

Chk2 = molecular target: T3, Chk2 (Homo sapiens, UniProt O96017); test: Radiometric kinase assay; format: biochemical
T3 construct: Human, 5-543, N-; GST (N); His (C); purchased Upstate Biotechnology
T3 sequence (O96017 5-543): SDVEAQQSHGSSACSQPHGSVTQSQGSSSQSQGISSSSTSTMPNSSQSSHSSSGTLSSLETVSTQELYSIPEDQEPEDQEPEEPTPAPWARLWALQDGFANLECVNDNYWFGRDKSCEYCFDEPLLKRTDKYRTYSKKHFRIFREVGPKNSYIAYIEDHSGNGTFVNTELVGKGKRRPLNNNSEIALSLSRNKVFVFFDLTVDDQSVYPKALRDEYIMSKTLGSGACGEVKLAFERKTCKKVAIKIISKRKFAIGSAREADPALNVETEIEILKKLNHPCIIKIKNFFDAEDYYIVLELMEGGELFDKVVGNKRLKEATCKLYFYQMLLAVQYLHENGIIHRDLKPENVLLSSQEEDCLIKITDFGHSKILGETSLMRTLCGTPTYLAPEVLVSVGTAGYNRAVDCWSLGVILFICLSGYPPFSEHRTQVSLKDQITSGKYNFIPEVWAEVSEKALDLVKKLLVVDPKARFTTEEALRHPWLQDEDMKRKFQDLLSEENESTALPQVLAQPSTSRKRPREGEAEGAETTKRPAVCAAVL
Method: as §1

Plk1 = molecular target: T4, Plk1 (Homo sapiens, UniProt P53350); test: Radiometric kinase assay; format: biochemical
T4 construct: His6
Method: as §1

[3] = human, in vivo
[4] = molecular target: T5, EGFR phosphorylation (H1975 cells) (Homo sapiens, UniProt P00533, L858R/T790M); test: Immunoblot analysis of H1975 cell lysates; format: cell-based
T5 construct: host or cells: H1975 (cultured cells; s.c. xenografts in mice)
Method: For the H1975 immunoblot studies, 3×10^5 cells were plated in each well (12-well plate) and incubated for 16 h in complete RPMI 1640, rinsed with fetal bovine serum-free RPMI 1640, and incubated with serial dilutions of test compounds in fetal bovine serum-free medium for 2 h followed by stimulation with 100 ng/mL human recombinant EGF for 10 min. Whole-cell protein lysates were prepared as described above and centrifuged for 10 min at 13,000×g at 4° C. to remove any insoluble material. Total protein was determined using bicinchoninic acid reagent and an equal amount of protein was combined with LDS loading buffer (Invitrogen) according to the manufacturer's instructions. Proteins were separated by gel electrophoresis on 4% to 15% polyacrylamide gels, transferred to nitrocellulose membranes, and detected by immunoblotting. Antibody:antigen complexes were detected using chemiluminescence. The following antibodies from Cell Signaling Technology were used at a 1:1,000 dilution: anti-EGFR, anti-pEGFR^Tyr1068, anti-AKT, anti-pAKT^Ser473, anti-ERK, and anti-pERK^Thr202/Tyr204. The anti-β-actin primary antibody (Accurate Chemical and Scientific) was used at 1:10,000 and the horseradish peroxidase-coupled secondary antibodies were purchased from Jackson ImmunoResearch and used at 1:5,000.

Galanin, Non-Selective = test: NovaScreen assay; format: binding
Sigma, Non-selective = test: NovaScreen assay; format: binding
NOS (Neuronal-Binding) = molecular target: T6, NOS (Neuronal-Binding) (Homo sapiens, UniProt P29475); test: NovaScreen assay; conditions: read-out: Inhibition, 10 μM XL-647
T6 construct: NovaScreen

EphB4 = molecular target: T7, EphB4 (Homo sapiens, UniProt P54760); test: Mechanism of action study / Ki determination; format: biochemical
T7 construct: residues E605-E890 of human EphB4 containing a six histidine NH2-terminal tag; His6 (N); made in house; host or cells: baculovirus expression system
T7 sequence (P54760 605-890): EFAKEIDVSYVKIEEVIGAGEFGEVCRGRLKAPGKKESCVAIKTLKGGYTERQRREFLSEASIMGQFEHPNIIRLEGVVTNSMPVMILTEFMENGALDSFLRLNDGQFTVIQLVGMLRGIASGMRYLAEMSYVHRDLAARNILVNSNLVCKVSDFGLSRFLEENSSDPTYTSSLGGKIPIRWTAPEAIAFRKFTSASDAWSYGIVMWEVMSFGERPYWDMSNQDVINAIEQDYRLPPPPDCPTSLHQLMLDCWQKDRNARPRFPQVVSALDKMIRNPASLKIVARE
Method: Enzymatic activity was measured by standard methods after dilution of the enzyme-inhibitor complex. Activity was compared to a DMSO control treated under identical conditions.

CYP3A4 = CYP3A4 (Homo sapiens, UniProt P08684); conditions: microsomes
Sodium, Site 2 = test: NovaScreen assay; format: binding
Calcium Channel, Type N = molecular target: T8, Calcium Channel, Type N (Homo sapiens, UniProt Q00975); test: NovaScreen assay; format: binding; conditions: read-out: Inhibition, 10 μM XL-647
T8 construct: NovaScreen
T8 sequence (Q00975 whole entry): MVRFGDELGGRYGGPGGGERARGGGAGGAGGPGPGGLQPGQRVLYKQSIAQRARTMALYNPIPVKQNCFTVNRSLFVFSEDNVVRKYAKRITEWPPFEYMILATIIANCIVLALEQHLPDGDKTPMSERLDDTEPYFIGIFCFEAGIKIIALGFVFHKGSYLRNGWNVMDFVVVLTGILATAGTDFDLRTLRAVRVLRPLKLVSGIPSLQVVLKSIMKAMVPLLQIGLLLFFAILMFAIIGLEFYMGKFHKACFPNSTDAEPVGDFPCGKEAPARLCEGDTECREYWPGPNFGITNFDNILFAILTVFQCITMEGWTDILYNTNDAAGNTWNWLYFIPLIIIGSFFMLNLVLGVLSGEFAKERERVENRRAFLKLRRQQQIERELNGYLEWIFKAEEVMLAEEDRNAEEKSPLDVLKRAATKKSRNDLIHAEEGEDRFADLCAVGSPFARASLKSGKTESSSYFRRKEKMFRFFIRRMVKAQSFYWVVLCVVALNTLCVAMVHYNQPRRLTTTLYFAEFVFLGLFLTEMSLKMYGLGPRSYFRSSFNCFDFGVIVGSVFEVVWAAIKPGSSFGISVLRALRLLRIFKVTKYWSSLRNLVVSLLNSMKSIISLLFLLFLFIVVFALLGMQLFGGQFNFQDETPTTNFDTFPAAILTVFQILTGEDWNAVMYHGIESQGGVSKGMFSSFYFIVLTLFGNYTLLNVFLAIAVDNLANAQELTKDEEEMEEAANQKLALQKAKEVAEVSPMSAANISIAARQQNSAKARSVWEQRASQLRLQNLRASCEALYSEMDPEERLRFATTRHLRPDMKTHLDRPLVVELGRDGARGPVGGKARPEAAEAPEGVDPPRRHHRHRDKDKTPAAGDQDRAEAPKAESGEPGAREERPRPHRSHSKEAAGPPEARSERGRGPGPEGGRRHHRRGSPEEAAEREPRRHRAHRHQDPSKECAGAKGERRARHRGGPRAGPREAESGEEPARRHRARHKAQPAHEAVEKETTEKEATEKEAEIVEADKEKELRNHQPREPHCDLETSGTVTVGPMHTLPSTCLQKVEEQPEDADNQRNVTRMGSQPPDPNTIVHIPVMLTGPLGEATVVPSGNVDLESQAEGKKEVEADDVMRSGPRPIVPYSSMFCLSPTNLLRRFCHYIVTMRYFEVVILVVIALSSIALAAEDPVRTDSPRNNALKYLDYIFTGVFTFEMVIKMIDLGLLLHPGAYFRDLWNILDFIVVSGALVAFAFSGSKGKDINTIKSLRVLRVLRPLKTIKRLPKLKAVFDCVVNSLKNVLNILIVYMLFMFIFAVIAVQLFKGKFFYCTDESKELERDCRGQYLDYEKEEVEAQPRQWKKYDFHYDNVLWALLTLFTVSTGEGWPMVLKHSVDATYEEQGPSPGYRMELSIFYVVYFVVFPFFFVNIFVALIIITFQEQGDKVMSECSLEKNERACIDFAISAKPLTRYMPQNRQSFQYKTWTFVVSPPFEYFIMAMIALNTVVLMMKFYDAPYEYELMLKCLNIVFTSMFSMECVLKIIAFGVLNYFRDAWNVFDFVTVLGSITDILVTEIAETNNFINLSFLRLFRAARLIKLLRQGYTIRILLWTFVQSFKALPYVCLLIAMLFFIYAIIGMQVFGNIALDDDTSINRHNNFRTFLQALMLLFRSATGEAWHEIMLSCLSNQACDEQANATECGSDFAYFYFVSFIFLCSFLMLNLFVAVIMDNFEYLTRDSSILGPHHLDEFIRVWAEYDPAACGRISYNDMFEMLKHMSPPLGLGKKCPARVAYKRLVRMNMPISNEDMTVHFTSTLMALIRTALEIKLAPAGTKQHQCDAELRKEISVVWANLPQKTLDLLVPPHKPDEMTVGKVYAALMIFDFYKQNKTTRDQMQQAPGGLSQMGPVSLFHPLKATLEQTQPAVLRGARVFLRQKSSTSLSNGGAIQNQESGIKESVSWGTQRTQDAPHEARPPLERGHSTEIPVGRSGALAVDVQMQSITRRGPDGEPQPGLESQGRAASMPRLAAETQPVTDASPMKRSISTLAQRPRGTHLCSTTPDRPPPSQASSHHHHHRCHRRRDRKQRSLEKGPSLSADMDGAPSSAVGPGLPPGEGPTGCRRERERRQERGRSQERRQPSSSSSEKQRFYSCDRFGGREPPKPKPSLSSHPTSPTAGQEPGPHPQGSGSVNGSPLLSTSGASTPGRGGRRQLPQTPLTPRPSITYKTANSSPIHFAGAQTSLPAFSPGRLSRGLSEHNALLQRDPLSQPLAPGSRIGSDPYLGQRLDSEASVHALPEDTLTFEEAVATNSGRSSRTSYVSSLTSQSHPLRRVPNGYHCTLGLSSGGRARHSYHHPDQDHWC

[5] = tested on: Vasoactive Intestinal Peptide, Non-selective; test: NovaScreen assay; format: binding
[6] = tested on: Calu-6 human tumor xenograft; test: Calu-6 xenograft, tumor growth; format: in vivo; conditions: Mus musculus, qd × 28
Method: The response of tumors to treatment was determined by comparing the mean tumor weight of the treatment group with the appropriate control group. Percentage inhibition of tumor growth was determined with the following formula: Percentage inhibition=100×[1−(Xf−Xo)/(Yf−Yo)], where Xf and Yf are the mean tumor weights of the treatment and control groups, respectively, on day f, and Xo and Yo are the mean tumor weights of treatment and control groups respectively, on day zero (staged tumor weights after grouping)

Chain of KDR (P35968 20-1356, species assumed): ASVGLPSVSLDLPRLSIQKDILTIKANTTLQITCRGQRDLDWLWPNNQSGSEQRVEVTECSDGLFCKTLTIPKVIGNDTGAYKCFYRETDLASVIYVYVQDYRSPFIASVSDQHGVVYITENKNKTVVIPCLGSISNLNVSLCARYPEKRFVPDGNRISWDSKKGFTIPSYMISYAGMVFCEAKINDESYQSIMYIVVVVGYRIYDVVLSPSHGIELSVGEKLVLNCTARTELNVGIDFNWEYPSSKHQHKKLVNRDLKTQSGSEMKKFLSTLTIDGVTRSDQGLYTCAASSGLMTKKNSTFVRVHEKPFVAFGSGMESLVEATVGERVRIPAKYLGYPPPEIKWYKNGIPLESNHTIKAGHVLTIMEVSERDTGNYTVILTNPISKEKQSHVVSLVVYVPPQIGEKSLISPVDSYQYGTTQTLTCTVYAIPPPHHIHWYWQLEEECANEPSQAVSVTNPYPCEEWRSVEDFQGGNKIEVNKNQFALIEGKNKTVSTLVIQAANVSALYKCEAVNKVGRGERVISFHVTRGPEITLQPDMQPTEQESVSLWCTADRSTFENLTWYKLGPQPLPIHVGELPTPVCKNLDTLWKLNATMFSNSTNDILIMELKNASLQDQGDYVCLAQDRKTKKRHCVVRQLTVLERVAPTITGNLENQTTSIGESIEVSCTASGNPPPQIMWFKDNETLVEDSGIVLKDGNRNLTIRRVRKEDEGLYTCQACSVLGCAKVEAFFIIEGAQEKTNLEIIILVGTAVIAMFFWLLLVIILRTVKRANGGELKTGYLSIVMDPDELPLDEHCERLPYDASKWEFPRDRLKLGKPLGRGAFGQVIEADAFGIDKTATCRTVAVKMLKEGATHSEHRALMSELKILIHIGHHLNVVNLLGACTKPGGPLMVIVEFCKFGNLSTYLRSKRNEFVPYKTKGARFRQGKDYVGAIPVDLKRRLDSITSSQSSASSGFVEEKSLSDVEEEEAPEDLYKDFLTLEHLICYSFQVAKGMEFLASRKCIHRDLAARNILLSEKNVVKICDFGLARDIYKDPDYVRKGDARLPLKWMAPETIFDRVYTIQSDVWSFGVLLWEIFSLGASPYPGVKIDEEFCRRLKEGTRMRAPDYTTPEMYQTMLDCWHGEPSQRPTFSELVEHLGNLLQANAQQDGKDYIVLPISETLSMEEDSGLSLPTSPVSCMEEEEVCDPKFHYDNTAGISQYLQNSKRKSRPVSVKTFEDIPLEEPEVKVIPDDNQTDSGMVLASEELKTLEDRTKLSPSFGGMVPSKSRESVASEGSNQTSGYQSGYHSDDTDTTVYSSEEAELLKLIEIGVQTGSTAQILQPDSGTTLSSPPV

COc1cc2c(Nc3ccc(Cl)c(Cl)c3F)ncnc2cc1OC[C@@H]1C[C@@H]2CN(C)C[C@@H]2C1 [XL-647, N-(3,4-dichloro-2-fluorophenyl)-7-({[(3aR,5r,6aS)-2-methyloctahydrocyclopenta[c]pyrrol-5-yl]methyl}oxy)-6-(methyloxy)quinazolin-4-amine]
Inhibition, 10 μM XL-647 [1]: 17.02% | IC50 (KDR): 137 nM | Inhibition, 10 μM XL-647 [2]: 5.02% | IC50 (PKC-ε): > 10000 nM | IC50 (Chk1): > 10000 nM | IC50 (Chk2): > 10000 nM | IC50 (Plk1): > 1000 nM | most common adverse events (frequency ≧10%) [3]: diarrhea, rash, fatigue, nausea, dry skin, cough, dyspnoea, anorexia, electrocardiogram QT prolongation (machine-read), vomiting, constipation, dysgeusia, upper respiratory tract infection, abdominal pain, back pain, pyrexia, dizziness, and dry mouth | phosphorylation of EGFR, immunoblot [4]: inhibits phosphorylation of EGFR | Inhibition, 10 μM XL-647 (Galanin, Non-Selective): 1.57% | Inhibition, 10 μM XL-647 (Sigma, Non-selective): 50.90% | inhibition at 10 µM (NOS (Neuronal-Binding)): 16.8% | ATP-Competitive (EphB4): Yes | Ki (EphB4): 1 nM | Reversible (EphB4): Yes | CYP3A4 substrate, in words (CYP3A4): substrate for CYP3A4-mediated metabolism | Inhibition, 10 μM XL-647 (Sodium, Site 2): 88.06% | inhibition at 10 µM (Calcium Channel, Type N): 16.8% | Inhibition, 10 μM XL-647 [5]: 17.02% | ED50 [6]: 16.4 mg/kg
